Patent US11377473B2, “Albumin-binding prodrugs of auristatin E derivatives” (priority 2017, dated 2022)

Key:
[1] = system: human ovarian carcinoma model A2780; assay: Human ovarian carcinoma model A2780, large tumors; format: in vivo, NMRI nude mice
Method: (§1) Feed and water were provided ad libitum. […] Identification used: ear mark and cage labels. […] Tumor volumes were calculated according to the following equation: […]
(§2) The evaluation of auristatin E and the albumin-binding auristatin E derivative AE-Keto-Sulf07 in a human ovarian carcinoma model A2780 was carried out as described in the general procedure for cell-line-derived xenograft models.
The evaluation of auristatin E and the albumin-binding auristatin E derivative AE-Ester-Sulf07 in a human ovarian carcinoma model A2780 was carried out as described in the general procedure for cell-line-derived xenograft models.

[2] = Dose finding studies
Method: Female immunodeficient NMRI nude mice, from Janvier, France, received 5×10^6-10^7 cultured cancer cell in buffer/Matrigel (1:1) inoculated subcutaneously, until tumors were palpable and had reached the desired volume (for xenograft studies).
Animals were kept in cages (Macrolon Type-II wire-mesh) with temperature maintained at 22±1° C., relative humidity of 50 f 10% and an air change rate of 60-fold per hour. Mice were kept under a 12-hour light/12-hour dark, artificial light cycle. The animals were fed with autoclaved Ssniff NM (Soest, Germany), and had access to sterile filtered and acidified (pH 4.0) tap water which was changed twice weekly. Feed and water were provided ad libitum. […] The health of the animals was examined at the start of the experiment and twice per day during the experiment. Identification used: ear mark and cage labels. Starting on day 0, animals were weighed two or three times per week and mean body weight per group was related to the initial value in percent to calculate the body weight change (BWC). Tumor diameters were determined by a two-dimensional measurement with a caliper on the day of randomization (Day 0) and then twice or three times per week. Tumor volumes were calculated according to the following equation:
Tumor Vol [mm^3]=1 [mm]×w^2 [mm^2]×0.5, where “1” is the length and “w” is width of the tumor. The relative volume of an individual tumor on day X (RTVx) was calculated by dividing the absolute individual tumor volume [mm^3] of the respective tumor on day X (Tx) by the absolute individual tumor volume of the same tumor on the day of randomization multiplied by 100%. Schedules were applied to the extent that animal welfare policies allow. Termination of individual mice was carried out at tumor volume >1500 mm^3 (unilateral) or when ulceration was observed. Statistical comparison was performed with the Mann-Whitney U-test. Dose Finding Studies of Auristatin E and the Albumin-Binding Auristatin E Derivatives AE-Keto-Sulf07 and AE-Ester-Sulf07.
Stock solutions were prepared as follows: • 1) 3 mice per group, 26 g average weight on day of randomization: 0.3, 0.6 or 1.2 mg/kg dose auristatin E TFA salt (AE equiv.) dosed once weekly for 4 weeks on day 0, 6, 13, 20≡0.35-1.41 mg/kg≡7.1-28.3 μg/20 g mouse. Sample preparation: 8.5 mg weighed in a 50 mL vial dissolved in 30.0 mL 25/75 tert-butanol/10 mM sodium phosphate buffer, 5% sucrose—pH 7.0; 0.2-0.8 mL were aliquoted in 2 mL vials depending on the final desired final dose. The vials were frozen for 1 h at −40° C. and lyophilized at −20° C. over ˜36 h and then stoppered. On day of injection, the lyophilized samples were reconstituted with 0.8 mL of 10 mM sodium phosphate buffer, 20% propylene glycol—pH 7.0. • 2) 3 mice per group, 26 g average weight on day of randomization: 1.2 and 2.4 mg/kg AE-Keto-Sulf07 (AE equiv.) dosed twice weekly for 4 weeks ≡1.94-3.87 mg/kg≡38.7 and 77.4 μg/20 g mouse. Sample preparation: 11.0 mg weighed in a 30 mL vial dissolved in 14.2 mL 50/50 tert-butanol/10 mM sodium phosphate buffer, 5% sucrose—pH 7.0; 0.4-0.8 mL were aliquoted in 2 mL vials depending on the final desired final dose. The vials were frozen for 1 h at −40° C. and lyophilized at −20° C. over ˜36 h and then stoppered. On the day of injection, the lyophilized samples were reconstituted with 0.8 mL of 10 mM sodium phosphate buffer, 20% propylene glycol—pH 7.0. • 3) 3 mice per group, 26 g average weight on day of randomization: 1.2, 1.6 or 2.0 mg/kg AE-Ester-Sulf07 (AE equiv.) dosed twice weekly for 4 weeks on day≡2.18-3.64 mg/kg≡43.7-72.8 μg/20 g mouse. Sample preparation: 19.2 mg weighed in a 30 mL vial dissolved in 26.3 mL 50/50 tert-butanol/10 mM sodium phosphate buffer, 5% sucrose—pH 7.0; 0.48-0.8 mL were aliquoted in 2 mL vials depending on the final desired final dose. The vials were frozen for 1 h at −40° C. and lyophilized at −20° C. over ˜36 h and then stoppered.

[3] = system: human ovarian carcinoma model A2780; assay: Human ovarian carcinoma model A2780, small tumors; format: in vivo, NMRI nude mice
Method: as §1, §2
The evaluation of the albumin-binding auristatin E derivative AE-Ester-Sulf07 in a human ovarian carcinoma model A2780 was carried out as described in the general procedure for cell-line-derived xenograft models.
AE-Ester-Sulf07 was also tested in the same ovarian carcinoma model A2780 with smaller tumors and a different dosing scheme to diminish the side effects of the drug on the skin of the mice. AE-Ester-Sulf07 was dosed at 3.8 mg/kg four times once weekly, showing again a statistically significant improved antitumor effect compared to the control (p<0.01 from day 7 to 14). Mice treated with AE-Ester-Sulf07 in the new dosing regimen achieved partial remission from day 12 until day 35 and complete remission from day 39 until the end of the study on day 70.

[4] = system: human tumor xenograft models; assay: Antitumor activity in human tumor xenograft mice models (overall statement); format: in vivo, nude mice; conditions: starting tumor volumes approximately 130-170 mm^3 and up to approximately 380 mm^3
[5] = 0.3 mg/kg eight times twice weekly
[6] = 1.9 mg/kg eight times twice weekly

Molecule: CC[C@H](C)[C@@H]([C@@H](CC(=O)N1CCC[C@H]1[C@H](OC)[C@@H](C)C(=O)N[C@H](C)[C@@H](O)c1ccccc1)OC)N(C)C(=O)[C@@H](NC(=O)[C@H](C(C)C)N(C)C)C(C)C [auristatin E]
- antitumor effect [1, 5]: did not achieve any antitumor effect
- tolerability ([2]; 0.3 mg/kg once weekly for 4 weeks): well tolerated
- tolerability ([2]; 0.6 mg/kg once weekly, no animal survived after the second injection): high toxicity
- tolerability ([2]; 1.2 mg/kg once weekly, no animal survived after the first injection): high toxicity
- maximum tolerated dose (MTD) ([2]; injected biweekly for four weeks (total of eight injections)): 0.3 mg/kg
- antitumor effect [3, 5]: did not achieve any antitumor effect
- antitumor activity in all human tumor xenografts evaluated [4]: principally inactive

Molecule: 2-(2-(1-(4-(((1S,2R)-2-((2R,3R)-3-((S)-1-((3R,4R,5S)-4-((S)-2-((R)-2-(dimethylamino)-3-methylbutanamido)-N,3-dimethylbutanamido)-3-methoxy-5-methylheptanoyl)pyrrolidin-2-yl)-3-methoxy-2-methylpropanamido)-1-phenylpropoxy)carbonyl)phenyl)ethylidene)hydrazine-1-carbonyl)-5-(6-(2,5-dioxo-2,5-dihydro-1H-pyrrol-1-yl)hexanamido)benzenesulfonic acid [AE-Ester-Sulf07]
- animals lost [1, 6]: four animals had to be removed from the study due to tumor necrosis
- body weight [1, 6]: no sign of body weight loss compared to the control
- tumor response ([1]; 1.9 mg/kg eight times twice weekly, day 19 until day 51): partial remission (partial remission >10-50%)
- tumor response ([1]; 1.9 mg/kg eight times twice weekly, day 54 until end of study on day 103): complete remission (complete remission <10%)
- p, antitumor efficacy versus auristatin E ([1]; 1.9 mg/kg versus auristatin E 0.3 mg/kg, eight times twice weekly, day 37 to day 40): < 0.001
- side effect compared with the other groups ([2]; 4.0 mg/kg once weekly): lowest side effect
- body weight change ([2]; 2.0, 2.2, 2.4 mg/kg twice per week and 4.0, 4.4, 4.8 mg/kg once per week over four weeks): No body weight change
- appearance of skin irritation ([2]; all groups: 2.0, 2.2, 2.4 mg/kg twice per week and 4.0, 4.4, 4.8 mg/kg once per week): 9 to 14 days
- tolerability ([2]; up to 2.0 mg/kg dosed twice weekly for four weeks): no evident sign of toxicity
- animals lost ([3]; 3.8 mg/kg four times once weekly): Three AE-Ester-Sulf07 treated mice showed body weight loss and had to be sacrificed on day 59
- p, antitumor effect compared to the control ([3]; 3.8 mg/kg four times once weekly, day 7 to 14): < 0.01
- tumor response ([3]; 3.8 mg/kg four times once weekly, day 12 until day 35): partial remission (partial remission >10-50%)
- tumor response ([3]; 3.8 mg/kg four times once weekly, day 39 until end of study on day 70): complete remission (complete remission <10%)
- antitumor activity in all human tumor xenografts evaluated [4]: partial and complete remissions

Molecule: CC[C@H](C)[C@@H]([C@@H](CC(=O)N1CCC[C@H]1[C@H](OC)[C@@H](C)C(=O)N[C@H](C)C(=NNC(=O)c1ccc(NC(=O)CCCCCN2C(=O)C=CC2=O)cc1S(=O)(=O)O)c1ccccc1)OC)N(C)C(=O)[C@@H](NC(=O)[C@H](C(C)C)N(C)C)C(C)C [AE-Keto-Sulf07, 2-(2-((R)-2-((2R,3R)-3-((S)-1-((3R,4S,5S)-4-((S)-2-((S)-2-(dimethylamino)-3-methylbutanamido)-N,3-dimethylbutanamido)-3-methoxy-5-methylheptanoyl)pyrrolidin-2-yl)-3-methoxy-2-methylpropanamido)-1-phenylpropylidene)hydrazine-1-carbonyl)-5-(6-(2,5-dioxo-2,5-dihydro-1H-pyrrol-1-yl)hexanamido)benzenesulfonic acid]
- body weight ([1]; 4.5 mg/kg eight times twice weekly): only a slightly reduced body weight growth compared to the control
- tumor response ([1]; 4.5 mg/kg eight times twice weekly, day 26 until end of study on day 103): complete remission (complete remission <10%)
- p, antitumor effect versus auristatin E ([1]; 4.5 mg/kg versus auristatin E 0.3 mg/kg, eight times twice weekly, day 22 to day 40): < 0.001
- tolerability ([2]; 6.5 mg/kg biweekly in later xenograft studies, treatment stopped after five injections): above the MTD
- tolerability ([2]; all doses tested (1.2 and 2.4 mg/kg), injected eight times on a biweekly schedule): well tolerated
- safe dose ([2]; biweekly schedule): 4.5 mg/kg
- tumor response ([3]; 3.0 and 5.0 mg/kg eight times twice weekly, day 9 until end of study on day 60): partial remission (partial remission >10-50%)
- p, antitumor efficacy versus auristatin E ([3]; 3.0 and 5.0 mg/kg versus auristatin E 0.3 mg/kg, eight times twice weekly, day 7 to day 29): < 0.01
- transient body weight loss ([3]; 3.0 and 5.0 mg/kg, after the first treatment): ~2%
- tumor response (transient) ([3]; higher dose 5.0 mg/kg, day 25 to day 51): complete remission (complete remission <10%)
- animals lost ([3]; higher dose group 5.0 mg/kg): One mouse from the higher dose group was found dead on day 35
- tumor response (transient) ([3]; lower dose 3.0 mg/kg, day 23 to day 35): complete remission (complete remission <10%)
- animals lost ([3]; lower dose group 3.0 mg/kg): one from the lower dose group had to be sacrificed on day 42 for general bad conditions
- antitumor activity in all human tumor xenografts evaluated [4]: partial and complete remissions
